Source: patent US11512353B2, “Method to predict response to neuropsychiatric drugs using variation in the serotonin 7 receptor (HTR7) gene” (The Regents of the University of California, priority 2018, dated 2022)

Tests used:
[1] = test system: subjects with BD, MDD or SABP diagnosis; assay: Retrospective cohort: association of rs7905446 genotype with self-reported SSRI response (logistic regression); assay type: in vivo, human; conditions: TT vs TG/GG, TT associated with poor response, logistic regression adjusted for sex and age, Caucasian subjects
Description: SNP genotyping. Genotyping of rs7905446 (T/G) was performed using TaqMan SNP genotyping assay on 7900HT Fast Real-Time PCR System (Thermo Fisher Scientific, Waltham, Mass., USA) as previously described. The assay included negative controls and was run with the following condition: 95° C. for 10 min followed by 40 cycles of 92° C. for 15 s and 60° C. for 1 min. The genotyping success rate was >95%. Twenty percent of the samples were genotyped in duplicate, with 100% reproducibility.
Statistical analysis. The association between drug response and allelic SNPs identified from pooled-sequencing were performed using logistic regression (PLINK version 1.9).. The association between drug response and rs7905446 genotype was performed using logistic regression within Caucasian population. χ^2 tests were used to compare the sex distribution between responder and non-responder. Group differences were analyzed using Student's T-test. P value<0.05 were considered statistically significant.
Subjects. All subjects (n=497) were ascertained as part of several cohorts collected for genetic studies of BD. Subjects were identified through VA and UCSD clinics, as well as, advertisement and patient support groups. […]
Assessment of SSRI response. […] Subject's response to SSRI's over their lifetime was assessed based on self-reporting. […]

[2] = test system: outpatients with moderate to severe unipolar depression; assay: Prospective GENDEP cohort: association of rs7905446 genotype with antidepressant remission; assay type: in vivo, human; conditions: TT vs TG/GG, logistic regression adjusted for sex, age and center ID, week 12, remission MADRS≤10
Description: Statistical analysis. The association between drug response and allelic SNPs identified from pooled-sequencing were performed using logistic regression (PLINK version 1.9).. The association between drug response and […] genotype was performed using logistic regression within Caucasian population. χ^2 tests were used to compare the sex distribution between responder and non-responder. Group differences were analyzed using Student's T-test. […] Replication study II in the Genome-based Therapeutic Drugs for Depression ([…]) study. […] is a multicenter part-randomized open-label pharmacogenetic study of 811 outpatients with moderate to severe unipolar depression diagnosed according to DSM-IV and established in the semi-structured SCAN interview. Patients were aged 19 to 72 years with European ancestry for at least two generations. Patients with personal and family history of schizophrenia or bipolar affective disorder and current dependence on alcohol or drugs were excluded from the study. […] Patients with contraindications for one of the drugs were allocated nonrandomly to the other antidepressant. […] The study was approved by ethics boards of all the participating centers. All participants provided written informed consent.

HTR7 [3] = conditions: chronic treatment; cited from earlier work
HTR7 [4] = target: HTR7 (Mus musculus, UniProt P32304); conditions: in vivo; cited from earlier work
Sequence of HTR7 (Mus musculus, UniProt P32304) (P32304 whole entry): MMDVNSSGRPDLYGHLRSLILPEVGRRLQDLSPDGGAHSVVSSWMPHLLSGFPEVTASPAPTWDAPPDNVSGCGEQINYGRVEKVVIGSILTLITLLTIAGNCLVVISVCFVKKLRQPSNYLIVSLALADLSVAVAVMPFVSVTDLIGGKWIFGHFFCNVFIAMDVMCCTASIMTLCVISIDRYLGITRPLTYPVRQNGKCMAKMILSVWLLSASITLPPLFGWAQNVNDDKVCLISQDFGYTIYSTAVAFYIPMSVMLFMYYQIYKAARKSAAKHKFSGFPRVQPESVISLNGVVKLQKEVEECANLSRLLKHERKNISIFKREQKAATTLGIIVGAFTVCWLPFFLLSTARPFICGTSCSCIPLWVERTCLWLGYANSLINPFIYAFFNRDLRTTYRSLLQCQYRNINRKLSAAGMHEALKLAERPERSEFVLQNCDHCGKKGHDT

HTR7 [5] = target: HTR7 (Homo sapiens, UniProt P34969); conditions: cited from earlier work
Sequence of HTR7 (Homo sapiens, UniProt P34969) (P34969 whole entry): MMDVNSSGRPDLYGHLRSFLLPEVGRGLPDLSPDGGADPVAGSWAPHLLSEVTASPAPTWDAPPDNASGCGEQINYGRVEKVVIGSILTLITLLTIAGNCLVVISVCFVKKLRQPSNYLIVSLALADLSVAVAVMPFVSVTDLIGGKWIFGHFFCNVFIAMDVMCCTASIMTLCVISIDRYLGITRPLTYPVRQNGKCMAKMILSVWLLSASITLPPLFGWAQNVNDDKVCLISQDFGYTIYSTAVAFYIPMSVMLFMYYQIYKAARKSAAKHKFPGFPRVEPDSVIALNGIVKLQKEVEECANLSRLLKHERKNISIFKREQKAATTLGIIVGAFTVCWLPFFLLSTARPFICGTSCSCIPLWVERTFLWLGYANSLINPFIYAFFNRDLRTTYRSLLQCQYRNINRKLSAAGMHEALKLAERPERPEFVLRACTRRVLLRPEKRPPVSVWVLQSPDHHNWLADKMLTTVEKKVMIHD

[6] = target: norepinephrine transporter (Homo sapiens, UniProt P23975); conditions: cited from earlier work
Sequence of norepinephrine transporter (P23975 whole entry, species assumed): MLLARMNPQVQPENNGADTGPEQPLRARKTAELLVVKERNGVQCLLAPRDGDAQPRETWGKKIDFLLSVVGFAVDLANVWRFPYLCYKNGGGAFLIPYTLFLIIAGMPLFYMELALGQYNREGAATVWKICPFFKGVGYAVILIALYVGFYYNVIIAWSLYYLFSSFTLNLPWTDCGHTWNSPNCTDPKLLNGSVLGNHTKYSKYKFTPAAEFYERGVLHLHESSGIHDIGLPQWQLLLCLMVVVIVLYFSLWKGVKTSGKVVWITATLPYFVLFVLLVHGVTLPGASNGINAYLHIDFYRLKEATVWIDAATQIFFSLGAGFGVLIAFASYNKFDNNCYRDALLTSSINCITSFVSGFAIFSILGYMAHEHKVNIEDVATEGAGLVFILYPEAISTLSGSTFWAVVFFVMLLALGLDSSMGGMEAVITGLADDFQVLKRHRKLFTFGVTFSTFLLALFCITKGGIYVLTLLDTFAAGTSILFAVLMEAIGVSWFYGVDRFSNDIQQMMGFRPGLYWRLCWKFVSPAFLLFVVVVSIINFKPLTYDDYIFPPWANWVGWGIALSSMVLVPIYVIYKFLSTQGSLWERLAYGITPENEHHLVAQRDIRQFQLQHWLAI

## Fc1ccc([C@@H]2CCNC[C@H]2COc2ccc3c(c2)OCO3)cc1 [Paroxetine]
[1]
  OR, Rs7905446, responder vs. non-responder: 5.250

## CNCCC=C1c2ccccc2CCc2ccccc21 [Nortriptyline, Nortyptiline]
[2]
  OR, Rs7905446, remitter vs. non-remitter: 0.694

## CNCCC(Oc1ccc(C(F)(F)F)cc1)c1ccccc1 (stereo not drawn) [fluoxetine, Fluoxetine]
HTR7 [3]
  HTR7 expression: downregulates

## CC1CCN(CC[C@H]2CCCN2S(=O)(=O)c2cccc(O)c2)CC1 [SB-269970]
HTR7 [4]
  effects of SSRI and NARI on blockade of HTR7: potentiate

## CN(C)CCC=C1c2ccccc2CCc2ccccc21 [amitriptyline, Amitriptyline]
HTR7 [5]
  affinity to HTR7: high affinity

## O=C1[C@H]2CCCC[C@H]2C(=O)N1CCCCN1CCN(c2nsc3ccccc23)CC1 [perospirone, Perospirone]
HTR7 [5]
  affinity to HTR7: high affinity

## CN(C)CCC[C@@]1(c2ccc(F)cc2)OCc2cc(C#N)ccc21 [Escitalopram]
[6]
  effect on norepinephrine transporter: no direct effect
[2]
  OR, Rs7905446, remitter vs. non-remitter: 1.669

## O=C1[C@@H]2[C@H]3CC[C@H](C3)[C@@H]2C(=O)N1C[C@@H]1CCCC[C@H]1CN1CCN(c2nsc3ccccc23)CC1 [lurasidone, Lurasidone]
HTR7 [5]
  affinity to HTR7: high affinity

## CCN1CCCC1CNC(=O)c1cc(S(=O)(=O)CC)c(N)cc1OC (stereo not drawn) [amisulpride, Amisulpride]
HTR7 [5]
  affinity to HTR7: high affinity

## Cc1nc2n(c(=O)c1CCN1CCC(c3noc4cc(F)ccc34)CC1)CCCC2 [risperidone, Risperidone]
HTR7 [5]
  affinity to HTR7: high affinity

## Clc1ccc2c(c1)C(N1CCNCC1)=Nc1ccccc1O2 [amoxapine, Amoxapine]
HTR7 [5]
  affinity to HTR7: high affinity
